Tests used:
Bengal commelina = assay: greenhouse herbicidal test, post-emergence treatment; format: in vivo; settings: application rates of 15.63 g/ha
Text: (§1) The seeds of the test plants were sown separately for each species. For the post-emergence treatment, the test plants were first grown to a height of 3 to 15 cm, depending on the plant form, and only then treated with the active compounds, emulsified or suspended in water. The test plants were for this purpose either sown directly and grown in the same containers, or they were first grown separately as seedlings and transplanted into the test containers a few days prior to treatment. The application rate for the pre- and post-emergence treatment was from 62.5 to 3.1 g of a.s./ha. Depending on the species, the plants were kept at 10-25° C. or 20-35° C. The test period extended over 2 to 4 weeks. During this time, the plants were tended, and their response to the individual treatments was evaluated. Evaluation was carried out using a scale from 0 to 100. 100 means no emergence of the plants, or complete destruction of at least the above-ground parts, and 0 means no damage, or normal course of growth. The plants used in the greenhouse experiments were composed of the following species: [table]

common lambsquarters [1] = assay: as above; format: in vivo
Text: as §1

velvet leaf [2] = assay: as above; format: in vivo; settings: application rates of 15.63 g/ha
Text: as §1

common morning glory [3] = assay: as above; format: in vivo
Text: as §1

pigweed [4] = assay: as above; format: in vivo
Text: as §1

common lambsquarters [5] = assay: greenhouse herbicidal test, pre-emergence treatment; format: in vivo; settings: for pre-emergence activity against common lambsquarters: application rates of 12.5 and 6.2 g/ha; for control of common lambsquarters, pre-emergence method: application rates of 6.2 and 3.1 g/ha
Text: (§2) The seeds of the test plants were sown separately for each species. For the pre-emergence treatment, the active compounds, emulsified or suspended in water, were applied directly after sowing by means of finely distributing nozzles. The containers were irrigated gently to promote germination and growth and subsequently covered with transparent plastic hoods until the plants had rooted. This cover caused uniform germination of the test plants, unless this was adversely affected by the active compounds. The application rate for the pre- and post-emergence treatment was from 62.5 to 3.1 g of a.s./ha. Depending on the species, the plants were kept at 10-25° C. or 20-35° C. The test period extended over 2 to 4 weeks. During this time, the plants were tended, and their response to the individual treatments was evaluated. Evaluation was carried out using a scale from 0 to 100. 100 means no emergence of the plants, or complete destruction of at least the above-ground parts, and 0 means no damage, or normal course of growth. The plants used in the greenhouse experiments were composed of the following species: [table]

common morning glory [6] = assay: as above; format: in vivo; settings: for pre-emergence activity against common morning glory: application rates of 12.5 and 6.2 g/ha; for control of morning glory, pre-emergence method: application rates of 6.2 and 3.1 g/ha
Text: as §2

pigweed [7] = assay: as above; format: in vivo; settings: for pre-emergence activity against pigweed: application rates of 12.5 and 6.2 g/ha; for control of pigweed, pre-emergence method: application rates of 6.2 and 3.1 g/ha
Text: as §2

wild buckwheat = assay: as above; format: in vivo; settings: application rates of 12.5 and 6.2 g/ha
Text: as §2

ladysthumb = assay: greenhouse herbicidal test, post-emergence treatment; format: in vivo; settings: for post-emergence activity against ladysthumb: application rates of 15.6 and 7.8 g/ha; for post-emergence activity against ladiesthumb: application rates of 15.63 g/ha
Text: as §1

velvet leaf [8] = assay: greenhouse herbicidal test, pre-emergence treatment; format: in vivo; settings: for control of velvet leaf, pre-emergence method: application rates of 6.2 and 3.1 g/ha
Text: as §2

common nightshade = assay: as above; format: in vivo; settings: application rates of 62.5 and 31.2 g/ha
Text: as §2

cleavers harrif = assay: greenhouse herbicidal test, post-emergence treatment; format: in vivo; settings: application rates of 15.63 g/ha
Text: as §1

[9] = application rates of 15.63 g/ha
[10] = application rates of 15.6 and 7.8 g/ha
[11] = application rates of 62.5 and 31.2 g/ha

## CNC(=O)NS(=O)(=O)c1cc(-n2c(=O)cc(C(F)(F)F)n(C)c2=O)c(F)cc1Cl [Compound 2.17]
Bengal commelina
  post-emergence activity against Bengal commelina: very good
Common lambsquarters [1]; [9]
  post-emergence activity against common lambsquarters: very good
Velvet leaf [2]
  post-emergence activity against velvet leaf: very good

## CC(C)N(C(=O)NS(=O)(=O)c1cc(-n2c(=O)cc(C(F)(F)F)n(C)c2=O)c(F)cc1Cl)C(C)C [Compound 2.27]
Common morning glory [3]; [9]
  post-emergence activity against common morning glory: very good
Pigweed [4]; [9]
  post-emergence activity against pigweed: very good

## C#CC(C)N(C)C(=O)NS(=O)(=O)c1cc(-n2c(=O)cc(C(F)(F)F)n(C)c2=O)c(F)cc1Cl (stereo not drawn) [Compound 2.28]
Common lambsquarters [1]; [9]
  post-emergence activity against common lambsquarters: very good
Common morning glory [3]; [9]
  post-emergence activity against common morning glory: very good
Pigweed [4]; [9]
  post-emergence activity against pigweed: very good

## Cn1c(C(F)(F)F)cc(=O)n(-c2cc(S(=O)(=O)NC(=O)Nc3ccccc3)c(Cl)cc2F)c1=O [Compound 2.29]
Common lambsquarters [1]; [10]
  post-emergence activity against common lambsquarters: very good
Common morning glory [3]; [10]
  post-emergence activity against common morning glory: very good
Pigweed [4]; [10]
  post-emergence activity against pigweed: very good

## COC(=O)NS(=O)(=O)c1cc(-n2c(=O)cc(C(F)(F)F)n(C)c2=O)ccc1Cl [Compound 3.1]
Common lambsquarters [5]
  pre-emergence activity against common lambsquarters: very good
Common morning glory [6]
  pre-emergence activity against common morning glory: very good
Pigweed [7]
  pre-emergence activity against pigweed: very good
Wild buckwheat
  pre-emergence activity against wild buckwheat: very good

## COC(=O)NS(=O)(=O)c1cc(-n2c(=O)cc(C(F)(F)F)n(C)c2=O)c(F)cc1Cl [Compound 3.18]
Common lambsquarters [5]
  pre-emergence activity against common lambsquarters: very good
Common morning glory [6]
  pre-emergence activity against common morning glory: very good
Pigweed [7]
  pre-emergence activity against pigweed: very good
Wild buckwheat
  pre-emergence activity against wild buckwheat: very good

## CCOC(=O)NS(=O)(=O)c1cc(-n2c(=O)cc(C(F)(F)F)n(C)c2=O)c(F)cc1Cl [Compound 3.19]
Common lambsquarters [1]; [10]
  post-emergence activity against common lambsquarters: very good
Common morning glory [3]; [10]
  post-emergence activity against common morning glory: very good
ladysthumb
  post-emergence activity against ladysthumb: very good
Pigweed [4]; [10]
  post-emergence activity against pigweed: very good

## CCCOC(=O)NS(=O)(=O)c1cc(-n2c(=O)cc(C(F)(F)F)n(C)c2=O)c(F)cc1Cl [Compound 3.20]
Common lambsquarters [1]; [10]
  post-emergence activity against common lambsquarters: very good
Common morning glory [3]; [10]
  post-emergence activity against common morning glory: very good
ladysthumb
  post-emergence activity against ladysthumb: very good
Pigweed [4]; [10]
  post-emergence activity against pigweed: very good

## CCCCOC(=O)NS(=O)(=O)c1cc(-n2c(=O)cc(C(F)(F)F)n(C)c2=O)c(F)cc1Cl [Compound 3.22]
Common lambsquarters [1]; [10]
  post-emergence activity against common lambsquarters: very good
Common morning glory [3]; [10]
  post-emergence activity against common morning glory: very good
ladysthumb
  post-emergence activity against ladysthumb: very good
Pigweed [4]; [10]
  post-emergence activity against pigweed: very good

## CC(C)COC(=O)NS(=O)(=O)c1cc(-n2c(=O)cc(C(F)(F)F)n(C)c2=O)c(F)cc1Cl [Compound 3.24]
Common lambsquarters [5]
  control of common lambsquarters, pre-emergence method: very good
Common morning glory [6]
  control of morning glory, pre-emergence method: very good
Pigweed [7]
  control of pigweed, pre-emergence method: very good
Velvet leaf [8]
  control of velvet leaf, pre-emergence method: very good

## CCCCCOC(=O)NS(=O)(=O)c1cc(-n2c(=O)cc(C(F)(F)F)n(C)c2=O)c(F)cc1Cl [Compound 3.26]
Common lambsquarters [1]; [10]
  post-emergence activity against common lambsquarters: very good
Common morning glory [3]; [10]
  post-emergence activity against common morning glory: very good
Pigweed [4]; [10]
  post-emergence activity against pigweed: very good

## Cn1c(C(F)(F)F)cc(=O)n(-c2cc(S(=O)(=O)NC(=O)OC3CCCC3)c(Cl)cc2F)c1=O [Compound 3.27]
Common lambsquarters [1]; [10]
  post-emergence activity against common lambsquarters: very good
Common morning glory [3]; [10]
  post-emergence activity against common morning glory: very good
ladysthumb
  post-emergence activity against ladysthumb: very good
Pigweed [4]; [10]
  post-emergence activity against pigweed: very good

## Cn1c(C(F)(F)F)cc(=O)n(-c2cc(S(=O)(=O)NC(=O)OCc3ccccc3)c(Cl)cc2F)c1=O [Compound 3.32, Benzyl{2-chloro-4-fluoro-5-[3,6-dihydro-3-methyl-2,6-dioxo-4-trifluoromethyl-(2H)-pyrimidin-1-yl]phenyl}sulfonylcarbamate]
Common lambsquarters [5]; [11]
  effectiveness against common lambsquarters, pre-emergence method: very good
Common nightshade
  effectiveness against common nightshade, pre-emergence method: very good
Pigweed [7]; [11]
  effectiveness against pigweed, pre-emergence method: very good
Velvet leaf [8]; [11]
  effectiveness against velvet leaf, pre-emergence method: very good

## COC(=O)COC(=O)NS(=O)(=O)c1cc(-n2c(=O)cc(C(F)(F)F)n(C)c2=O)c(F)cc1Cl [Compound 3.41]
Cleavers harrif
  post-emergence activity against cleavers harrif: very good
ladysthumb
  post-emergence activity against ladiesthumb: very good
Pigweed [4]; [9]
  post-emergence activity against pigweed: very good

## COCC(C)(C)OC(=O)NS(=O)(=O)c1cc(-n2c(=O)cc(C(F)(F)F)n(C)c2=O)c(F)cc1Cl [Compound 3.42]
Common morning glory [3]; [9]
  post-emergence activity against common morning glory: very good
ladysthumb
  post-emergence activity against ladiesthumb: very good
Velvet leaf [2]
  post-emergence activity against velvet leaf: very good

## CC(C)C(=O)NS(=O)(=O)c1cc(-n2c(=O)cc(C(F)(F)F)n(C)c2=O)ccc1Cl [Compound 4.5, N-isobutynyl-[2-chloro-5-(3,6-dihydro-3-methyl-2,6-dioxo-4-trifluoromethyl-1-(2H)-pyrimidinyl)]benzenesulfonamide]
other
  melting point: 114 to 116 °C

## CCC(=O)NS(=O)(=O)c1cc(-n2c(=O)cc(C(F)(F)F)n(C)c2=O)c(F)cc1Cl [Compound 4.14]
Cleavers harrif
  post-emergence activity against cleavers harrif: very good
ladysthumb
  post-emergence activity against ladiesthumb: very good
Pigweed [4]; [9]
  post-emergence activity against pigweed: very good

## CC(C)C(=O)NS(=O)(=O)c1cc(-n2c(=O)cc(C(F)(F)F)n(C)c2=O)c(F)cc1Cl [Compound 4.16]
Common lambsquarters [5]
  control of common lambsquarters, pre-emergence method: very good
Common morning glory [6]
  control of morning glory, pre-emergence method: very good
Pigweed [7]
  control of pigweed, pre-emergence method: very good
Velvet leaf [8]
  control of velvet leaf, pre-emergence method: very good

From patent US7741485B2, “Benzenesulphonamide derivatives as herbicides or desiccant/defoliant compounds” (BASF Aktiengesellschaft, priority 2003, dated 2010)
